For this experiment, the system named is 138582-337-R-J1-PDC complex spheroid viability. Kind of experiment: Anticancer human tumor 138582-337-R-J1-PDC patient-derived Merkel cell tumor cell line growth inhibition. The settings on record: for viability, T/C: stronger effect = lower value. A digest of the protocol:
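Complex spheroids of tumor cells with HUVEC and human MSCs, exposed to iadademstat combined with other agents. Each agent tested in half-log steps from near clinical Cmax (else 10 microM top), DMSO ≤0.25%.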

[1] abbreviates: curve of first compound, second compound 0.1 µM.
Where [2] appears, read: curve of first compound, second compound 0.316 µM.
Where [3] appears, read: curve of first compound, second compound 1 µM.
Setting [4] is: curve of first compound, second compound 3.16 µM.
Setting [5] is: curve of first compound, second compound 10 µM.
The mark [6] stands for this setting: second compound 0.1 µM, first compound 0.0316 µM.
[7] abbreviates: second compound 0.1 µM, first compound 0.1 µM.
The mark [8] stands for this setting: second compound 0.1 µM, first compound 0.316 µM.
The mark [9] stands for this setting: second compound 0.1 µM, first compound 1 µM.
The mark [10] stands for this setting: second compound 0.1 µM, first compound 3.16 µM.
Setting [11] is: second compound 0.1 µM, first compound 10 µM.
Setting [12] is: second compound 0.316 µM, first compound 0.0316 µM.
Setting [13] is: second compound 0.316 µM, first compound 0.1 µM.
[14] abbreviates: second compound 0.316 µM, first compound 0.316 µM.
Setting [15] is: second compound 0.316 µM, first compound 1 µM.
[16] abbreviates: second compound 0.316 µM, first compound 3.16 µM.
Where [17] appears, read: second compound 0.316 µM, first compound 10 µM.
[18] abbreviates: second compound 1 µM, first compound 0.0316 µM.
Where [19] appears, read: second compound 1 µM, first compound 0.1 µM.
[20] abbreviates: second compound 1 µM, first compound 0.316 µM.
Setting [21] is: second compound 1 µM, first compound 1 µM.
Where [22] appears, read: second compound 1 µM, first compound 3.16 µM.
[23] abbreviates: second compound 1 µM, first compound 10 µM.
Where [24] appears, read: second compound 3.16 µM, first compound 0.0316 µM.
[25] abbreviates: second compound 3.16 µM, first compound 0.1 µM.
The mark [26] stands for this setting: second compound 3.16 µM, first compound 0.316 µM.
Setting [27] is: second compound 3.16 µM, first compound 1 µM.
Setting [28] is: second compound 3.16 µM, first compound 3.16 µM.
Setting [29] is: second compound 3.16 µM, first compound 10 µM.
Setting [30] is: second compound 10 µM, first compound 0.0316 µM.
[31] abbreviates: second compound 10 µM, first compound 0.1 µM.
Setting [32] is: second compound 10 µM, first compound 0.316 µM.
Where [33] appears, read: second compound 10 µM, first compound 1 µM.
The mark [34] stands for this setting: second compound 10 µM, first compound 3.16 µM.
[35] abbreviates: second compound 10 µM, first compound 10 µM.

The record followed here is PubChem BioAssay AID1918931 (Molecular Pharmacology Branch, DTP, NCI, 2023).

pIC50: −log10 of the molar value. Several values for one entry are separate records, joined by “and”; a condition that tells them apart may be missing. Identical values can stand only once. Some results are limits rather than exact numbers.
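Wherever viability, T/C is given: 100% = DMSO vehicle control viability.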

What is called pIC50 is −log10 of the IC50, conventionally taken in molar units. As usually defined, the viability, T/C is the ratio of treated to control. Turning to `Nc1ccccc1NC(=O)c1ccc(CNC(=O)OCc2cccnc2)cc1` + NC1CC1c1ccc(-c2cccc(O)c2)cc1, the pIC50 is 6.49 under setting [1]; 6.45 under setting [2]; 6.41 under setting [3]; 6.51 under setting [4]; 6.58 under setting [5]. Besides, the viability, T/C reads like this: (second compound 0.1 µM, first compound 0.00949 µM) 86.8%; (second compound 0.1 µM, first compound 0.03 µM) 72.7%; (second compound 0.1 µM, first compound 0.0949 µM) 78.6%; (second compound 0.1 µM, first compound 0.3 µM) 53%; (second compound 0.1 µM, first compound 0.949 µM) 7.55%; (second compound 0.1 µM, first compound 3 µM) 0.52%. Also, the viability, T/C was 71.1% (second compound 0.316 µM, first compound 0.00949 µM); 76.6% (second compound 0.316 µM, first compound 0.03 µM); 76.6% (second compound 0.316 µM, first compound 0.0949 µM); 57.4% (second compound 0.316 µM, first compound 0.3 µM); 6.5% (second compound 0.316 µM, first compound 0.949 µM); 0.75% (second compound 0.316 µM, first compound 3 µM). Also, the viability, T/C (second compound 1 µM, first compound 0.00949 µM) was 72.1%; the viability, T/C (second compound 1 µM, first compound 0.03 µM) was 53%; the viability, T/C (second compound 1 µM, first compound 0.0949 µM) was 79.3%; the viability, T/C (second compound 1 µM, first compound 0.3 µM) was 62.6%; the viability, T/C (second compound 1 µM, first compound 0.949 µM) was 6.82%; the viability, T/C (second compound 1 µM, first compound 3 µM) is 0.31%. The viability, T/C was 74.5% (second compound 3.16 µM, first compound 0.00949 µM); 77% (second compound 3.16 µM, first compound 0.03 µM); 80.9% (second compound 3.16 µM, first compound 0.0949 µM); 50.8% (second compound 3.16 µM, first compound 0.3 µM); 6.44% (second compound 3.16 µM, first compound 0.949 µM); 0.64% (second compound 3.16 µM, first compound 3 µM). The viability, T/C was 79.8% (second compound 10 µM, first compound 0.00949 µM); 70.2% (second compound 10 µM, first compound 0.03 µM); 61.5% (second compound 10 µM, first compound 0.0949 µM); 50.1% (second compound 10 µM, first compound 0.3 µM); 4.95% (second compound 10 µM, first compound 0.949 µM); 0.46% (second compound 10 µM, first compound 3 µM).
Take `CC1COCCN1c1cc(-c2ccnn2C)c2ccnc(-c3ccn[nH]3)c2n1` (stereo not drawn): the viability, T/C (compound 0.00316 µM) is 76.4% and 67.9%; the viability, T/C (compound 0.01 µM) is 86.4% and 64.7%; the viability, T/C (compound 0.0316 µM) is 69.7% and 48.6%; the viability, T/C (compound 0.1 µM) is 61% and 34.3%; the viability, T/C (compound 0.316 µM) is 61% and 28.5%; the viability, T/C (compound 1 µM) is 39.8% and 25.1%.
For the compound `COc1ccc([C@@H](O)c2cc(-c3ncnc4cc(N5CCOCC5)ccc34)c(F)cc2Cl)nn1` + NC1CC1c1ccc(-c2cccc(O)c2)cc1, the pIC50 was 6.21 under setting [1]; 5.57 under setting [2]; 5.70 under setting [3]; 5.66 under setting [4]; 5.60 under setting [5]. For the same compound, the viability, T/C under setting [6] is 73.2%; the viability, T/C under setting [7] is 60.4%; the viability, T/C under setting [8] is 57%; the viability, T/C under setting [9] was 45.5%; the viability, T/C under setting [10] is 38.2%; the viability, T/C under setting [11] is 24.6%. Moreover, the viability, T/C by setting is: under setting [12], 67%; under setting [13], 72.2%; under setting [14], 66.1%; under setting [15], 58.3%; under setting [16], 49.2%; under setting [17], 28.5%. The viability, T/C runs as follows: under setting [18], 77.2%; under setting [19], 73.5%; under setting [20], 61%; under setting [21], 61.6%; under setting [22], 44.7%; under setting [23], 25.1%. The viability, T/C runs as follows: under setting [24], 68.3%; under setting [25], 79.5%; under setting [26], 65.4%; under setting [27], 58.8%; under setting [28], 46.4%; under setting [29], 26%. Moreover, the viability, T/C reads like this: under setting [30], 99.8%; under setting [31], 90.6%; under setting [32], 77%; under setting [33], 63.9%; under setting [34], 48.1%; under setting [35], 25.3%.
For `CC1COCCN1c1cc(C2(S(C)(=N)=O)CC2)nc(-c2ccnc3[nH]ccc23)n1` (stereo not drawn), the viability, T/C runs as follows: (compound 0.0316 µM) 91.2% and 97.8%; (compound 0.1 µM) 85.4% and 99.9%; (compound 0.316 µM) 88.4% and 81.3%; (compound 1 µM) 83.1% and 59.1%; (compound 3.16 µM) 68.1% and 46.4%; (compound 10 µM) 45.8% and 38.9%. Moreover, the pIC50 (curve of compound) is 5.09 and 5.68.
Take `COc1ccc([C@@H](O)c2cc(-c3ncnc4cc(N5CCOCC5)ccc34)c(F)cc2Cl)nn1`: the viability, T/C is, setting by setting: (compound 0.0316 µM) 92.5% and 76.9%; (compound 0.1 µM) 79.5% and 91.7%; (compound 0.316 µM) 64.9% and 66.6%; (compound 1 µM) 50.7% and 71.1%; (compound 3.16 µM) 45.5% and 46%; (compound 10 µM) 27.3% and 20.6%. For the same compound, under “curve of compound”, the negative logarithm of the IC50 (pIC50) was 5.87 and 5.57.
For `CC1COCCN1c1cc(C2(S(C)(=N)=O)CC2)nc(-c2ccnc3[nH]ccc23)n1` (stereo not drawn) + NC1CC1c1ccc(-c2cccc(O)c2)cc1, the pIC50 is, setting by setting: under setting [1], 5.34; under setting [2], 5.52; under setting [3], 5.30; under setting [4], 5.41; under setting [5], 5.37. Moreover, the viability, T/C under setting [6] is 74.1%; the viability, T/C under setting [7] is 78%; the viability, T/C under setting [8] is 70.3%; the viability, T/C under setting [9] was 68.6%; the viability, T/C under setting [10] is 54.2%; the viability, T/C under setting [11] is 37.6%. The viability, T/C is 64.6% under setting [12]; 79% under setting [13]; 75.8% under setting [14]; 68% under setting [15]; 49.4% under setting [16]; 35.9% under setting [17]. Also, the viability, T/C under setting [18] is 72%; the viability, T/C under setting [19] is 66.1%; the viability, T/C under setting [20] was 62.6%; the viability, T/C under setting [21] is 69.4%; the viability, T/C under setting [22] is 54%; the viability, T/C under setting [23] is 40.8%. For the same compound, the viability, T/C was 81.2% under setting [24]; 76.3% under setting [25]; 78.8% under setting [26]; 66.2% under setting [27]; 54% under setting [28]; 32.6% under setting [29]. In addition, the viability, T/C is 89.9% under setting [30]; 87.6% under setting [31]; 95.5% under setting [32]; 80.8% under setting [33]; 53.3% under setting [34]; 41.6% under setting [35].
`CC1(C)CCC(CN2CCN(c3ccc(C(=O)NS(=O)(=O)c4ccc(NCC5CCOCC5)c([N+](=O)[O-])c4)c(Oc4cnc5[nH]ccc5c4)c3)CC2)=C(c2ccc(Cl)cc2)C1`: the viability, T/C (compound 0.0316 µM) is 95.7% and 61.2%; the viability, T/C (compound 0.1 µM) is 95.8% and 70.4%; the viability, T/C (compound 0.316 µM) was 89.5% and 69.6%; the viability, T/C (compound 1 µM) is 101% and 73.5%; the viability, T/C (compound 3.16 µM) was 101% and 55.5%. In addition, where the note is “curve of compound”, the pIC50 was < 5.00 and 5.45.
As to `Nc1ncn(C2CC(O)C(CO)S2)c(=O)n1` (stereo not drawn), the viability, T/C by setting is: (compound 0.000949 µM) 96.8% and 93.8%; (compound 0.003 µM) 82.8% and 110%; (compound 0.00949 µM) 87.8% and 94.3%; (compound 0.03 µM) 94.6% and 92.3%; (compound 0.0949 µM) 91.3% and 93.4%; (compound 0.3 µM) 80.5% and 74.7%. Further, where the note is “curve of compound”, the pIC50 is under 6.52.
